# According to patent publication US20090232866A1, “Oligopeptides as coating material for medical products” (priority 2003, published 2009):
# *: point of attachment. CH2Cl = ClC*
# System: coronary arteries of pigs
# Assay: Balloon angioplasty and stent implantation in pig coronary arteries, IVUS assessment of neointimal proliferation after 4 weeks
# Format: in vivo, Domestic pigs
# Settings: local administration via perfusion balloon, 4 weeks after balloon angioplasty and stent implantation, 7 pigs per group
substance,measurement,setting,value
Ac-Tyr-Val-Ala-Asp-chloromethylketone (Ac-YVAD-CH2Cl) [Ac-YVAD-CMK],reduction of maximum plaque area in comparison with the negative control group,fraction of control value,approximately ⅓
same,reduction of plaque volume in comparison with the negative control group,fraction of control value,approximately ⅙
same,reduction of the stenotisized area in comparison with the negative control group,percent of control value,approximately 40%
